Test system: neuropathic pain
Assay: Analgesic effect against neuropathic pain: L5/L6 spinal nerve ligation (Chung model), von Frey mechanical allodynia
Format: in vivo, rat
Details: 100 micromole/kg i.p., 30 minutes before testing
Experimental: Animals were prepared for testing, by use of a surgical procedure that induces neuropathic pain in one paw. Male Sprague Dawley rats were purchased from Charles River (Portage, Mich.). Prior to surgery, animals were housed in groups and maintained in a temperature-regulated environment. Following nerve ligation surgery, animals were housed in groups, and had access to food and water ad libitum.
The L5 and L6 spinal nerves of anesthetized rats were tightly ligated in a manner described previously (see Kim and Chung, Pain (1992) vol. 50 pp. 355-363). An incision was made on the dorsal portion of the hip and the muscle was blunt-dissected to reveal the spinal processes. The L6 transverse process was removed, and the left side L5 and L6 spinal nerves were tightly ligated with 5.0 braided silk suture. The wound was cleaned, the membrane sewn with 4.0 dissolvable Vicryl suture and the skin closed with wound clips. The paw affected by the surgical procedure (the left paw) develops an allodynic response, a hypersensitivity to mechanical and other stimuli; neuropathic pain is assessed as an increased sensitivity in the surgically affected (left) allodynic paw compared to the control paw on the right side, and measured by comparing the response of the (left side) allodynic paw to the response of the unaffected right side control paw.
For the assessment of neuropathic pain, mechanical allodynia in the affected paw of animals that had undergone spinal nerve ligation was evaluated using testing with von Frey filaments. As described previously by S. R. Chaplan, et al (“Quantitative assessment of tactile allodynia in the rat paw” J. Neurosci. Meth. (1994) vol. 53 pp. 55-63), two weeks following surgery rats were acclimated to a testing box constructed of plexiglass with a wire mesh floor which allowed access to the plantar surface of the animal's hindpaws. Using an Up-Down method (Dixon, Annu. Rev. Pharmacol. Toxicol. (1980) vol. 20, pp. 441-462; Chaplan et al. “Quantitative assessment of tactile allodynia in the rat paw” J. Neuroscience Methods (1994) vol. 53 pp. 55-63), von Frey filaments of increasing stiffness were applied to the plantar surface of the hindpaws and the withdrawal response of the animals was observed; for the surgically affected paw with neuropathic pain (the left side paw) the baseline level of allodynia has a withdrawal threshold of ≦4 g of pressure. […] The efficacy of the compound in reducing neuropathic pain at different doses is determined by comparing response in the surgery-affected paw versus the response in the control paw. This is expressed as the MPE (maximum percent effect), or 100 times the withdrawal threshold of the allodynic (left side) divided by the withdrawal threshold of the control (right side).

Compound	MPE
Nc1nc2c(c(N3CC[C@@H](N)C3)n1)CCCc1ccccc1-2 [Example 16, 4-((3R)-3-Amino-pyrrolidin-1-yl)-6,7-dihydro-5H-benzo[6,7]cyclohepta[1,2-d]pyrimidin-2-ylamine]	47%

Target: histamine H4 receptor (Homo sapiens, UniProt Q9H3N8)
Assay: In vitro histamine H4 potency in FLIPR (Ca2+ flux, HEK-293 cells coexpressing Gαqi5)
Format: cell-based
Set-up: expressed in transfected cells
Details: Kb for antagonists and inverse agonists, EC50 for partial agonists
Method in brief: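 Fluo-4-loaded cells read on FLIPR for intracellular Ca2+ rise after compound addition, with pre-addition fluorescence subtracted. Peak responses per concentration expressed as % of the full-agonist histamine response. Concentration–response fits give Kb for antagonists/inverse agonists and EC50 for partial agonists.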

Potency	Compound
33 nM	CNC1CN(c2nc(N)nc3c2COc2ccccc2-3)C1 [Example 8, 1-(3-Methylamino-azetidin-1-yl)-10H-9-oxa-2,4-diaza-phenanthren-3-ylamine]
5754 nM	CNC1CN(c2nc(N)nc3c2CCS(=O)(=O)c2ccccc2-3)C1 [Example 38, 4-(3-Methylamino-azetidin-1-yl)-7,7-dioxo-6,7-dihydro-5H-7λ6-thia-1,3-diaza-dibenzo[a,c]cyclohepten-2-ylamine]
18 nM	CN[C@@H]1CCN(c2nc(N)nc3c2CC(C)c2ccccc2-3)C1 (stereo partly drawn) [Example 1, 6-Methyl-4-[(3R)-3-methylamino-pyrrolidin-1-yl]-5,6-dihydro-benzo[h]quinazolin-2-ylamine]
34 nM	CNC1CN(c2nc(N)nc3c2CCc2ccccc2-3)C1 [Example 40, 4-(3-Methylamino-azetidin-1-yl)-5,6-dihydro-benzo[h]quinazolin-2-ylamine]
537 nM	CNC1CN(c2nc(N)nc3c2CC[S+]([O-])c2ccccc2-3)C1 (centres unmarked) [Example 37, 4-(3-Methylamino-azetidin-1-yl)-7-oxo-6,7-dihydro-5H-7λ4-thia-1,3-diaza-dibenzo[a,c]cyclohepten-2-ylamine]
24 nM	Nc1nc2c(c(N3CCNCC3)n1)CCc1ccccc1-2 [Example 44, 4-Piperazin-1-yl-5,6-dihydro-benzo[h]quinazolin-2-ylamine]
562 nM	Nc1nc2c(c(N3CC(N)C3)n1)CCCCc1ccccc1-2 [Example 57, 4-(3-aminoazetidin-1-yl)-5,6,7,8-tetrahydrobenzo[7,8]cycloocta[1,2-d]pyrimidin-2-amine]
115 nM	Nc1nc2c(c(N3CC[C@H](N)C3)n1)CCCCc1ccccc1-2 [Example 56, 4-[(3S)-3-aminopyrrolidin-1-yl]-5,6,7,8-tetrahydrobenzo[7,8]cycloocta[1,2-d]pyrimidin-2-amine]
209 nM	CN1CC[C@@H]2CN(c3nc(N)nc4c3CCCc3ccccc3-4)C[C@@H]21 [Example 15, 4-((3aR,6aR)-1-Methyl-hexahydro-pyrrolo[3,4-b]pyrrol-5-yl)-6,7-dihydro-5H-benzo[6,7]cyclohepta[1,2-d]pyrimidin-2-ylamine]
32 nM	CN[C@@H]1CCN(c2nc(N)nc3c2CCCCc2ccccc2-3)C1 [Example 54, 4-[(3R)-3-(methylamino)pyrrolidin-1-yl]-5,6,7,8-tetrahydrobenzo[7,8]cycloocta[1,2-d]pyrimidin-2-amine]
1413 nM	CN[C@@H]1CCN(c2nc(N)nc3c2S(=O)(=O)CCc2ccccc2-3)C1 [Example 111, 4-((R)-3-Methylamino-pyrrolidin-1-yl)-5,5-dioxo-6,7-dihydro-5H-5λ6-thia-1,3-diaza-dibenzo[a,c]cyclohepten-2-ylamine]

Further lines, the compound ahead of its results:

Compound	Potency
Nc1nc2c(c(N3CCNCC3)n1)CCCCCc1ccccc1-2 [Example 21, 4-Piperazin-1-yl-6,7,8,9-tetrahydro-5H-1,3-diaza-dibenzo[a,c]cyclononen-2-ylamine]	5623 nM
Nc1nc2c(c(N3CCNCC3)n1)CCCc1cc3c(cc1-2)CCCC3 [Example 99, 4-Piperazin-1-yl-6,7,9,10,11,12-hexahydro-5H-1,3-diaza-benzo[3,4]cyclohepta[1,2b]naphthalen-2-ylamine]	25 nM
CN[C@@H]1CCN(c2nc(N)nc3c2CCOc2cc(OC)ccc2-3)C1 [Example 50, 9-methoxy-4-[(3R)-3-(methylamino)pyrrolidin-1-yl]-5,6-dihydro[1]benzoxepino[5,4-d]pyrimidin-2-amine]	56 nM
CN1CC[C@@H](Oc2nc(N)nc3c2CCCc2ccccc2-3)C1 [Example 70, 4-((R)-1-Methyl-pyrrolidin-3-yloxy)-6,7-dihydro-5H-benzo[6,7]cyclohepta[1,2-d]pyrimidin-2-ylamine]	37 nM
CN(C)CCNc1nc2c(c(N3CCNCC3)n1)CCCc1ccccc1-2 [Example 95, N,N-Dimethyl-N′-(4-piperazin-1-yl-6,7-dihydro-5H-benzo[6,7]cyclohepta[1,2-d]pyrimidin-2-yl)-ethane-1,2-diamine]	1413 nM
Nc1nc(OC2CCNCC2)c2c(n1)-c1ccccc1CCC2 [Example 72, 4-(Piperidin-4-yloxy)-6,7-dihydro-5H-benzo[6,7]cyclohepta[1,2-d]pyrimidin-2-ylamine]	1097 nM
Nc1nc2c(c(N3CC4CCCNC4C3)n1)CCSc1ccccc1-2 (centres unmarked) [Example 96, 4-(Octahydro-pyrrolo[3,4-b]pyridin-6-yl)-5,6-dihydro-7-thia-1,3-diaza-dibenzo[a,c]cyclohepten-2-ylamine]	19 nM
Nc1nc2c(c(N3CC4CCCNC4C3)n1)CCCc1cc3c(cc1-2)CCCC3 (centres unmarked) [Example 98, 4-(Octahydro-pyrrolo[3,4-b]pyridin-6-yl)-6,7,9,10,11,12-hexahydro-5H-1,3-diaza-benzo[3,4]cyclohepta[1,2-b]naphthalen-2-ylamine]	52 nM
CNc1ccc2c(c1)-c1nc(N)nc(N3CCNCC3)c1CCC2 [Example 129, 10-N-Methyl-4-piperazin-1-yl-6,7-dihydro-5H-benzo[6,7]cyclohepta[1,2-d]pyrimidine-2,10-diamine]	1096 nM
Nc1nc2c(c(N3CCC4(CCCCN4)CC3)n1)CCCc1ccccc1-2 [Example 75, 4-(1,9-Diaza-spiro[5.5]undec-9-yl)-6,7-dihydro-5H-benzo[6,7]cyclohepta[1,2-d]pyrimidin-2-ylamine]	4898 nM
CN[C@@H]1CCN(c2nc(N)nc3c2CCOc2ccc(C)cc2-3)C1 [Example 46, 10-methyl-4-[(3R)-3-(methylamino)pyrrolidin-1-yl]-5,6-dihydro[1]benzoxepino[5,4-d]pyrimidin-2-amine]	100 nM
CN1CCC2CN(c3nc(N)nc4c3CCCc3ccccc3-4)CC2C1 (centres unmarked) [Example 85, 4-(5-Methyl-octahydro-pyrrolo[3,4-c]pyridin-2-yl)-6,7-dihydro-5H-benzo[6,7]cyclohepta[1,2-d]pyrimidin-2-ylamine]	85 nM
NCC(=O)Nc1nc2c(c(N3CCNCC3)n1)CCCc1ccccc1-2 [Example 89, 2-Amino-N-(4-piperazin-1-yl-6,7-dihydro-5H-benzo[6,7]cyclohepta[1,2-d]pyrimidin-2-yl)-acetamide]	89 nM
COC(=O)N(C)c1ccc2c(c1)-c1nc(N)nc(N3CC4CCCNC4C3)c1CCC2 (centres unmarked) [Example 130, (2-Amino-4-octahydro-pyrrolo[3,4-b]pyridin-6-yl-6,7-dihydro-5H-benzo[6,7]cyclohepta[1,2-d]pyrimidin-10-yl)-methyl-carbamic acid methyl ester]	164 nM
CN[C@@H]1CCN(c2nc(N)nc3c2CCOc2c(C)cccc2-3)C1 [Example 52, 8-Methyl-4-((R)-3-methylamino-pyrrolidin-1-yl)-5,6-dihydro-7-oxa-1,3-diaza-dibenzo[a,c]cyclohepten-2-ylamine]	56 nM
Nc1nc2c(c(N3C[C@@H]4C[C@H]3CN4)n1)CCCc1ccccc1-2 [Example 17, 4-((1S,4S)-2,5-Diaza-bicyclo[2.2.1]hept-2-yl)-6,7-dihydro-5H-benzo[6,7]cyclohepta[1,2-d]pyrimidin-2-ylamine]	912 nM

Test system: inflammatory pain
Assay: Analgesic effect against inflammatory pain: carrageenan-induced thermal hyperalgesia, hotbox assay
Format: in vivo
Details: 100 micromole/kg i.p., 90 min after carrageenan, tested 30 min after dosing
Experimental: To assess the effectiveness of representative compounds of the invention against acute model inflammatory pain, animals were tested in an acute model of carrageenan-induced thermal hyperalgesia (see for example, Honore, et al. Behavioural Brain Research 167 (2006) 355-364; Porreca, et al. Journal of Pharmacology and Experimental Therapeutics (2006) vol. 318 pp. 195-205). Carrageenan was injected into the test paw of the animal, and after 90 minutes, the test drug was administered by intraperitoneal dosing; the effect on thermal hyperalgesia was assessed in a hotbox assay which done 30 minutes after the intraperitoneal dosing of the test drug, and the MPE (maximal percent effect) reported by comparison to the control paw (not injected with carrageenan), according to 100 times the withdrawal latency of the carrageenan injected paw (in seconds) divided by the withdrawal latency of the control (not injected with carrageenan) paw.

Compound	MPE
Nc1nc2c(c(N3CC[C@@H](N)C3)n1)CCCc1ccccc1-2 [Example 16, 4-((3R)-3-Amino-pyrrolidin-1-yl)-6,7-dihydro-5H-benzo[6,7]cyclohepta[1,2-d]pyrimidin-2-ylamine]	68%

Source: patent publication US8735411B2, “Macrocyclic benzofused pyrimidine derivatives” (AbbVie Inc., priority 2006, dated 2014)
